Reference: patent publication US11608335B2, “Somatostatin modulators and uses thereof” (CRINETICS PHARMACEUTICALS, INC., priority 2018, dated 2023)
Where two headings read alike, the source gives them in different places.

Tests used:
[1] = target: human somatostatin receptor subtype 5 (Homo sapiens, UniProt P35346); assay: cAMP assay for SST5R (inhibition of cAMP via human SST5 receptor); settings: for Fold selectivity for SST5 vs SST2: SST5 over SST2, class symbols
[2] = target: T1, human somatostatin receptor subtype 4 (Homo sapiens, UniProt P31391); assay: cAMP assay for hSST4R (inhibition of cAMP via human SST4 receptor); type: cell-based; settings: from inhibition of cAMP via human SST5 receptor and human SST4 receptor
T1 construct: expressed in transfected cells
T1 sequence (P31391 whole entry): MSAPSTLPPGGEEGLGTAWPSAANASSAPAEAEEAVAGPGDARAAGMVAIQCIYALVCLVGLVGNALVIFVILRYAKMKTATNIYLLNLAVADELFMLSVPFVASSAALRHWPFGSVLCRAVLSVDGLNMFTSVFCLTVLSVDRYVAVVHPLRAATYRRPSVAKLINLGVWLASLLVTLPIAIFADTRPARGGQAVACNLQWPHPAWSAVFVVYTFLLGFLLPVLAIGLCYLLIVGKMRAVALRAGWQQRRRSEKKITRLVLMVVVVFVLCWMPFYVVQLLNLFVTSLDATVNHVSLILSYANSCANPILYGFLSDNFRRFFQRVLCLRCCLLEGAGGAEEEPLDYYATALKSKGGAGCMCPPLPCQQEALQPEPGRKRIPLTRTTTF
From the text: cAMP Assay Protocol hSST4R:

[3] = target: T2, human somatostatin receptor subtype 2 (Homo sapiens, UniProt P30874); assay: cAMP assay for SST2R (inhibition of cAMP via human SST2 receptor); type: cell-based; settings: Table B, read-out: SST2 potency
T2 construct: expressed in transfected cells
T2 sequence (P30874 whole entry): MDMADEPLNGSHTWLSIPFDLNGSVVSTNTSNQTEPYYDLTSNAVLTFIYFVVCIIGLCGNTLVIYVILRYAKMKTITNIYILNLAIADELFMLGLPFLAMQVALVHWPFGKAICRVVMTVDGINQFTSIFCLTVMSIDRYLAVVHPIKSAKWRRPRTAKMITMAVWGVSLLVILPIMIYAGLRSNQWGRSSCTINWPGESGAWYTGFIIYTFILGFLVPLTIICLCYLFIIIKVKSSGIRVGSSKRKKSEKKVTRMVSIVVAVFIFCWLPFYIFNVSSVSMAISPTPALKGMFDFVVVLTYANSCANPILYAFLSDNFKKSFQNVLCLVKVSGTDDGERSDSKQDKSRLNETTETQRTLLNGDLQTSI
From the text: cAMP Assay Protocol for SST2R:

[4] = read-out: SST5 potency, inhibition of cAMP via human SST5 receptor, Table B

human somatostatin receptor subtype 5, sequence (P35346 whole entry): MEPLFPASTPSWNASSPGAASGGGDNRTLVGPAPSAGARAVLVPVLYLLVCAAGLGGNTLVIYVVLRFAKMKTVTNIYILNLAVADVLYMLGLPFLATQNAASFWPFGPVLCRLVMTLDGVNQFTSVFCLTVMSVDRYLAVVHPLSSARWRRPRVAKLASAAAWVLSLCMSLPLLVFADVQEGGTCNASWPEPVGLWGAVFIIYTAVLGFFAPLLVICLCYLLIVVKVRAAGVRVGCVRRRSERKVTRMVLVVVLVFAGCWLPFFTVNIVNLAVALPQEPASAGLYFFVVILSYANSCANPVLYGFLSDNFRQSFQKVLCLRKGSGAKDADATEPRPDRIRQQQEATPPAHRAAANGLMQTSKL

Structure (SMILES) | EC50 [1] [nM] | Fold selectivity for SST5 vs SST4 [2] [fold] | Fold selectivity for SST5 vs SST2 [1] | EC50 [1, 4] [nM] | EC50 [3] [nM]
NCC1CN(c2c(-c3ccc4ccccc4c3)cncc2-c2nc3cc(F)cc(F)c3[nH]2)C1 [Compound 1-41, 1-{1-[3-(4,6-difluoro-1H-1,3-benzodiazol-2-yl)-5-(naphthalen-2-yl)pyridin-4-yl]azetidin-3-yl}methanamine] | 100 to 1000 | 8.8 |  |  | 
CC1(N)CCN(c2c(-c3ccnc(C#N)c3)cncc2-c2nc3cccc(Cl)c3[nH]2)C1 (stereo not shown) [Compound 2-157, 4-(3-amino-3-methylpyrrolidin-1-yl)-5-(4-chloro-1H-1,3-benzodiazol-2-yl)-[3,4′-bipyridine]-2′-carbonitrile] | < 10 |  | +++ (+++=≥500) | < 10 | 10 to 100
C[C@]1(N)CCN(c2c(-c3ccnc(C#N)c3)cncc2-c2nc3cccc(Cl)c3[nH]2)C1 [Compound 2-163, 4-[(3S)-3-amino-3-methylpyrrolidin-1-yl]-5-(4-chloro-1H-1,3-benzodiazol-2-yl)-[3,4′-bipyridine]-2′-carbonitrile] | < 10 |  | +++ (+++=≥500) | < 10 | 100 to 1000
Cc1c(F)ccc2nc(-c3cncc(-c4ccnc(C#N)c4)c3N3CC[C@](C)(N)C3)[nH]c12 [Compound 2-164, 4-[(3S)-3-amino-3-methylpyrrolidin-1-yl]-5-(5-fluoro-4-methyl-1H-1,3-benzodiazol-2-yl)-[3,4′-bipyridine]-2′-carbonitrile] | < 10 | 323 |  |  | 
Cc1cc(F)cc2[nH]c(-c3cncc(-c4ccnc(C#N)c4)c3N3CC[C@](C)(N)C3)nc12 [Compound 2-166, 4-[(3S)-3-amino-3-methylpyrrolidin-1-yl]-5-(6-fluoro-4-methyl-1H-1,3-benzodiazol-2-yl)-[3,4′-bipyridine]-2′-carbonitrile] | < 10 |  | +++ (+++=≥500) | < 10 | 100 to 1000
C[C@]1(N)CCN(c2c(-c3ccc(F)c(C#N)c3)cncc2-c2nc3ncccc3[nH]2)C1 [Compound 2-167, 5-{4-[(3S)-3-amino-3-methylpyrrolidin-1-yl]-5-{1H-imidazo[4,5-b]pyridin-2-yl}pyridin-3-yl}-2-fluorobenzonitrile] | < 10 |  | +++ (+++=≥500) | < 10 | > 1000
Cc1cnc2nc(-c3cncc(-c4ccc(F)c(C#N)c4)c3N3CC[C@](C)(N)C3)[nH]c2c1 [Compound 2-170, 5-{4-[(3S)-3-amino-3-methylpyrrolidin-1-yl]-5-{6-methyl-1H-imidazo[4,5-b]pyridin-2-yl}pyridin-3-yl}-2-fluorobenzonitrile] | < 10 |  | +++ (+++=≥500) | < 10 | > 1000
COc1ccnc2nc(-c3cncc(-c4ccc(F)c(C#N)c4)c3N3CC[C@](C)(N)C3)[nH]c12 [Compound 2-172, 5-{4-[(3S)-3-amino-3-methylpyrrolidin-1-yl]-5-{7-methoxy-1H-imidazo[4,5-b]pyridin-2-yl}pyridin-3-yl}-2-fluorobenzonitrile] | < 10 |  | +++ (+++=≥500) | < 10 | > 1000
C[C@]1(N)CCN(c2c(-c3ccnc(C#N)c3)cncc2-c2nc3cccc(C(F)(F)F)c3[nH]2)C1 [Compound 2-175, 4-[(3S)-3-amino-3-methylpyrrolidin-1-yl]-5-[7-(trifluoromethyl)-1H-1,3-benzodiazol-2-yl]-[3,4′-bipyridine]-2′-carbonitrile] | < 10 |  | +++ (+++=≥500) | < 10 | 100 to 1000
C[C@]1(N)CCN(c2c(-c3cccc(C#N)c3)cncc2-c2nc3cccc(C#N)c3[nH]2)C1 [Compound 2-177, 2-{4-[(3 S)-3-amino-3-methylpyrrolidin-1-yl]-5-(3-cyanophenyl)pyridin-3-yl}-1H-1,3-benzodiazole-7-carbonitrile] | < 10 |  | +++ (+++=≥500) | < 10 | 100 to 1000
Cc1ccnc2nc(-c3cncc(-c4cccc(Cl)c4)c3N3CC[C@](C)(N)C3)[nH]c12 [Compound 2-180, (3S)-1-[3-(3-chlorophenyl)-5-{7-methyl-1H-imidazo[4,5-b]pyridin-2-yl}pyridin-4-yl]-3-methylpyrrolidin-3-amine] | < 10 |  | ++ (++=100 to 499) | < 10 | 10 to 100
Cc1cc(-c2cncc(-c3nc4c(F)cccc4[nH]3)c2N2CC[C@H](N)C2)ccn1 [Compound 2-181, (3S)-1-[5-(4-fluoro-1H-1,3-benzodiazol-2-yl)-2′-methyl-[3,4′-bipyridin]-4-yl]pyrrolidin-3-amine] | 10 to 100 |  | ++ (++=100 to 499) | 10 to 100 | > 1000
N#Cc1cc(F)cc(-c2cncc(-c3nc4cc(F)cc(F)c4[nH]3)c2N2CC[C@H](N)C2)c1 [Compound 2-195, 3-{4-[(3S)-3-aminopyrrolidin-1-yl]-5-(4,6-difluoro-1H-1,3-benzodiazol-2-yl)pyridin-3-yl}-5-fluorobenzonitrile] |  |  | +++ (+++=≥500) | < 10 | > 1000
Cc1cc(F)cc(-c2cncc(-c3nc4ccc(Cl)cc4[nH]3)c2N2CC[C@H](N)C2)c1 [Compound 2-196, (3S)-1-[3-(6-chloro-1H-1,3-benzodiazol-2-yl)-5-(3-fluoro-5-methylphenyl)pyridin-4-yl]pyrrolidin-3-amine] | 10 to 100 |  | + (+=10 to 99) | 10 to 100 | 100 to 1000
Cc1cc(F)cc(-c2cncc(-c3nc4cccc(Cl)c4[nH]3)c2N2CC[C@H](N)C2)c1 [Compound 2-197, (3S)-1-[3-(7-chloro-1H-1,3-benzodiazol-2-yl)-5-(3-fluoro-5-methylphenyl)pyridin-4-yl]pyrrolidin-3-amine] | < 10 |  | ++ (++=100 to 499) | < 10 | 100 to 1000
N#Cc1cc(F)cc(-c2cncc(-c3nc4ccc(Cl)cc4[nH]3)c2N2CC[C@H](N)C2)c1 [Compound 2-198, 3-{4-[(3S)-3-aminopyrrolidin-1-yl]-5-(6-chloro-1H-1,3-benzodiazol-2-yl)pyridin-3-yl}-5-fluorobenzonitrile] | < 10 |  | ++ (++=100 to 499) | < 10 | > 1000
Cc1cccc(-c2cncc(-c3nc4cccc(C)c4[nH]3)c2N2CC[C@@H](N)C2)c1 [Compound 2-199, (3R)-1-[3-(4-methyl-1H-1,3-benzodiazol-2-yl)-5-(3-methylphenyl)pyridin-4-yl]pyrrolidin-3-amine] | 100 to 1000 |  | + (+=10 to 99) | 100 to 1000 | > 1000
Cc1ccnc2nc(-c3cncc(-c4cc(F)cc(C#N)c4)c3N3CC[C@](C)(N)C3)[nH]c12 [Compound 2-202, 3-{4-[(3S)-3-amino-3-methylpyrrolidin-1-yl]-5-{7-methyl-1H-imidazo[4,5-b]pyridin-2-yl}pyridin-3-yl}-5-fluorobenzonitrile] | < 10 |  | +++ (+++=≥500) | < 10 | 100 to 1000
